Reference: US9296758B2, “2-quinolinyl-acetic acid derivatives as HIV antiviral compounds” (GILEAD SCIENCES, INC., priority 2010, dated 2016)

System: HIV-IIIb
Test: Test A: Antiviral Assays in MT4 Cells
Type: cell-based
Conditions: MT-4 cells infected with HIV-IIIb (0.004 m.o.i.), 5 days of incubation, CellTiter-Glo chemiluminescence readout
Protocol: Test A: Antiviral Assays in MT4 Cells For the antiviral assay utilizing MT-4 cells, 0.4 μL of 189X test concentration of 3-fold serially diluted compound in DMSO was added to 40 μL of cell growth medium (RPMI 1640, 10% FBS, 1% penicillin/Streptomycin, 1% L-Glutamine, 1% HEPES) in each well of 384-well assay plates (10 concentrations) in quadruplicate. 1 mL aliquots of 2×10e6 MT-4 cells are pre-infected for 1 and 3 hrs respectively, @ 37° C. with 25 μL (MT4) or of either cell growth medium (mock-infected) or a fresh 1:250 dilution of an HIV-IIIb concentrated ABI stock (0.004 m.o.i. for MT4 cells). Infected and uninfected cells are diluted in cell growth medium and 35 uL of 2000 (for MT4) cells is added to each well of the assay plates. Assay plates were then incubated in a 37° C. incubator. After 5 days of incubation, 25 μl of 2× concentrated CellTiter-Glo™ Reagent (catalog #G7573, Promega Biosciences, Inc., Madison, Wis.) was added to each well of the assay plate. Cell lysis was carried out by incubating at room temperature for 2-3 min and then chemiluminescence was read using the Envision reader (PerkinElmer).

[1] = Human immunodeficiency virus 1, IIIB, MT4, 120 h

| EC50 | Structure (SMILES) | EC50 [1] |
| --- | --- | --- |
|  | Cc1cc2nc(-c3ccncc3)ccc2c(-c2ccc3c4c(ccnc24)CCO3)c1[C@H](OC(C)(C)C)C(=O)O (atropisomer, axis not shown) [Compound 75, (S)-2-tert-Butoxy-2-((R)-5-(2,3-dihydropyrano[4,3,2-de]quinolin-7-yl)-7-methyl-2-(pyridin-4-yl)quinolin-6-yl)acetic acid] | 0.038 µM |
|  | Cc1cc2nc(-c3ccccn3)ccc2c(-c2ccc(Cl)cc2)c1[C@H](OC(C)(C)C)C(=O)O [Compound 79, (S)-2-tert-butoxy-2-(5-(4-chlorophenyl)-7-methyl-2-(pyridin-2-yl)quinolin-6-yl)acetic acid] | 0.086 µM |
|  | CCOCc1ccc2c(-c3ccc(Cl)cc3)c([C@H](OC(C)(C)C)C(=O)O)c(C)cc2n1 [Compound 15, (S)-2-tert-butoxy-2-(5-(4-chlorophenyl)-2-(ethoxymethyl)-7-methylquinolin-6-yl)acetic acid] | 0.334 µM |
|  | Cc1cc2nc(C(F)F)ccc2c(-c2ccc(Cl)cc2)c1[C@H](OC(C)(C)C)C(=O)O [Compound 100, (S)-2-tert-butoxy-2-(5-(4-chlorophenyl)-2-(difluoromethyl)-7-methylquinolin-6-yl)acetic acid] | 0.075 µM |
|  | Cc1cc2nc(CCc3ccccc3)ccc2c(-c2ccc3c4c(ccnc24)CCO3)c1[C@H](OC(C)(C)C)C(=O)O (atropisomer, axis not shown) [Compound 41, (S)-2-tert-butoxy-2-((R)-5-(2,3-dihydropyrano[4,3,2-de]quinolin-7-yl)-7-methyl-2-phenethylquinolin-6-yl)acetic acid] | 0.026 µM |
|  | CCc1ccc2c(-c3ccc(Cl)cc3)c([C@H](OC(C)(C)C)C(=O)O)c(C)cc2n1 [Compound 26, (S)-2-tert-butoxy-2-(5-(4-chlorophenyl)-2-ethyl-7-methylquinolin-6-yl)acetic acid] | 0.045 µM |
|  | Cc1ccc2c(-c3ccc(-c4ccccc4)cc3)c(C(OC(C)(C)C)C(=O)O)c(C)cc2n1 (stereo not drawn) [Compound 19, 2-(5-(Biphenyl-4-yl)-2,7-dimethylquinolin-6-yl)-2-tert-butoxyacetic acid] | 53 µM |
|  | Cc1cc2nc(C3CCC3)ccc2c(-c2ccc3c4c(ccnc24)CCO3)c1[C@H](OC(C)(C)C)C(=O)O (atropisomer, axis not shown) [Compound 47, (S)-2-tert-butoxy-2-((R)-2-cyclobutyl-5-(2,3-dihydropyrano[4,3,2-de]quinolin-7-yl)-7-methylquinolin-6-yl)acetic acid] | 0.014 µM |
|  | Cc1cc2nc(-c3ccncc3)ccc2c(-c2ccc(Cl)cc2)c1[C@H](OC(C)(C)C)C(=O)O [Compound 73, (S)-2-tert-butoxy-2-(5-(4-chlorophenyl)-7-methyl-2-(pyridin-4-yl)quinolin-6-yl)acetic acid] | 0.247 µM |
|  | Cc1cc2nc(Cc3ccccc3)ccc2c(-c2ccc3c4c(ccnc24)CCO3)c1[C@H](OC(C)(C)C)C(=O)O (atropisomer, axis not shown) [Compound 53, (S)-2-((R)-2-Benzyl-5-(2,3-dihydropyrano[4,3,2-de]quinolin-7-yl)-7-methylquinolin-6-yl)-2-tert-butoxyacetic acid] | 0.36 µM |
|  | Cc1cc2nc(-c3cn[nH]c3)ccc2c(-c2ccc(Cl)cc2)c1[C@H](OC(C)(C)C)C(=O)O [Compound 77, (S)-2-tert-butoxy-2-(5-(4-chlorophenyl)-7-methyl-2-(1H-pyrazol-4-yl)quinolin-6-yl)acetic acid] | 0.135 µM |
|  | Cc1cc2c(ccc(=O)n2-c2ccc(Cl)cc2)c(-c2ccc(Cl)cc2)c1[C@H](OC(C)(C)C)C(=O)O [Compound 59, (S)-2-(1,5-Bis(4-chlorophenyl)-7-methyl-2-oxo-1,2-dihydroquinolin-6-yl)-2-tert-butoxyacetic acid] | 0.321 µM |
|  | CNc1ccc2c(-c3ccc(Cl)cc3)c([C@H](OC(C)(C)C)C(=O)O)c(C)cc2n1 [Compound 31, (S)-2-tert-butoxy-2-(5-(4-chlorophenyl)-7-methyl-2-(methylamino)quinolin-6-yl)acetic acid] | 0.105 µM |
| 0.11 µM | Cc1ccc2c(-c3ccc4c5c(cccc35)CCO4)c([C@H](OC(C)(C)C)C(=O)O)c(C)cc2n1 (single isomer, unassigned) [Compound 102B] |  |
|  | Cc1cc2c(ccc3nccn32)c(-c2ccc(Cl)cc2)c1[C@H](OC(C)(C)C)C(=O)O [Compound 62, (S)-2-tert-Butoxy-2-(6-(4-chlorophenyl)-8-methylimidazo[1,2-a]quinolin-7-yl)acetic acid] | 0.072 µM |
|  | CCOC(=O)c1ccc2c(-c3ccc(Cl)cc3)c([C@H](OC(C)(C)C)C(=O)O)c(C)cc2n1 [Compound 13, (S)-2-tert-Butoxy-2-(5-(4-chlorophenyl)-2-(ethoxycarbonyl)-7-methylquinolin-6-yl)acetic acid] | 0.15 µM |
|  | Cc1cc2nc(-c3cscn3)ccc2c(-c2ccc(Cl)cc2)c1[C@H](OC(C)(C)C)C(=O)O [Compound 76, (S)-2-tert-butoxy-2-(5-(4-chlorophenyl)-7-methyl-2-(thiazol-4-yl)quinolin-6-yl)acetic acid] | 0.267 µM |
|  | Cc1cc2nc(-c3ccc(Cl)cc3)ccc2c(-c2ccc(Cl)cc2)c1[C@H](OC(C)(C)C)C(=O)O [Compound 27, (S)-2-(2,5-bis(4-chlorophenyl)-7-methylquinolin-6-yl)-2-tert-butoxyacetic acid] | 0.023 µM |
| 0.105 µM | Cc1ccc2c(-c3ccc4c(c3Cl)NCCO4)c([C@H](OC(C)(C)C)C(=O)O)c(C)cc2n1 (atropisomer, axis not shown) [Compound 105] |  |
|  | Cc1cc2nc(-c3ccccn3)ccc2c(-c2ccc3c4c(ccnc24)CCO3)c1[C@H](OC(C)(C)C)C(=O)O (atropisomer, axis not shown) [Compound 80, (S)-2-tert-Butoxy-2-((R)-5-(2,3-dihydropyrano[4,3,2-de]quinolin-7-yl)-7-methyl-2-(pyridin-2-yl)quinolin-6-yl)acetic acid] | 0.052 µM |
|  | Cc1cc2nc(C#Cc3ccccc3)ccc2c(-c2ccc3c4c(ccnc24)CCO3)c1[C@H](OC(C)(C)C)C(=O)O (atropisomer, axis not shown) [Compound 40, (S)-2-tert-butoxy-2-((R)-5-(2,3-dihydropyrano[4,3,2-de]quinolin-7-yl)-7-methyl-2-(phenylethynyl)quinolin-6-yl)acetic acid] | 0.051 µM |
| 0.013 µM | Cc1ccc2c(-c3ccc4c5c(cccc35)CCO4)c([C@H](OC(C)(C)C)C(=O)O)c(C)cc2n1 (single isomer, unassigned) [Compound 102A] |  |
|  | Cc1cc2nc(OCc3ccccc3)ccc2c(-c2ccc(Cl)cc2)c1[C@H](OC(C)(C)C)C(=O)O [Compound 65A, (S)-2-(2-(benzyloxy)-5-(4-chlorophenyl)-7-methylquinolin-6-yl)-2-tert-butoxyacetic acid] | 0.085 µM |
|  | Cc1cc2nc(CC(C)C)ccc2c(-c2ccc3c4c(ccnc24)CCO3)c1[C@H](OC(C)(C)C)C(=O)O (atropisomer, axis not shown) [Compound 50, (S)-2-tert-butoxy-2-((R)-5-(2,3-dihydropyrano[4,3,2-de]quinolin-7-yl)-2-isobutyl-7-methylquinolin-6-yl)acetic acid] | 0.024 µM |
|  | Cc1cc2nc(-n3ccnc3)ccc2c(-c2ccc(Cl)cc2)c1[C@H](OC(C)(C)C)C(=O)O [Compound 91, (S)-2-tert-Butoxy-2-(5-(4-chlorophenyl)-2-(1H-imidazol-1-yl)-7-methylquinolin-6-yl)acetic acid] | 0.073 µM |
|  | Cc1ccc2c(-c3ccc4c5c3CCCN5CCO4)c([C@H](OC(C)(C)C)C(=O)O)c(C)cc2n1 [Compound 103, (2S)-2-tert-butoxy-2-(2,7-dimethyl-5-(3,5,6,7-tetrahydro-2H-[1,4]oxazino[2,3,4-ij]quinolin-8-yl)quinolin-6-yl)acetic acid] | 0.025 µM |
|  | Cc1cc2nc(-c3ccnnc3)ccc2c(-c2ccc3c4c(ccnc24)CCO3)c1[C@H](OC(C)(C)C)C(=O)O [Compound 88, (S)-2-tert-butoxy-2-((R)-5-(2,3-dihydropyrano[4,3,2-de]quinolin-7-yl)-7-methyl-2-(pyridazin-4-yl)quinolin-6-yl)acetic acid] | 0.514 µM |
|  | Cc1cc2nc(-c3cccnc3)ccc2c(-c2ccc(Cl)cc2)c1[C@H](OC(C)(C)C)C(=O)O [Compound 74, (S)-2-tert-butoxy-2-(5-(4-chlorophenyl)-7-methyl-2-(pyridin-3-yl)quinolin-6-yl)acetic acid] | 0.092 µM |

| Structure (SMILES) | EC50 | EC50 [1] |
| --- | --- | --- |
| Cc1ccc2c(-c3ccc4c5c(ccnc35)CCO4)c([C@H](OC(C)(C)C)C(=O)O)c(C)cc2n1 [Compound 23, (S)-2-tert-Butoxy-2-((S)-5-(2,3-dihydropyrano[4,3,2-de]quinolin-7-yl)-2,7-dimethylquinolin-6-yl)acetic acid] | 26.2 µM |  |
| Cc1cc2nc(-c3cccs3)ccc2c(-c2ccc3c4c(ccnc24)CCO3)c1[C@H](OC(C)(C)C)C(=O)O [Compound 69, (S)-2-tert-butoxy-2-((R)-5-(2,3-dihydropyrano[4,3,2-de]quinolin-7-yl)-7-methyl-2-(thiophen-2-yl)quinolin-6-yl)acetic acid] | 0.082 µM |  |
